Converted amounts (≈) assume the structure as drawn. Where two headings read alike, the source gives them in different places.

The nature of data set [1]: Calculated Log partition coefficients (Log P).
The target in data set [2] is CDK2/CyclinA2 (Homo sapiens, UniProt P24941). Description: Kinase activity assay. In kind it is biochemical. The conditions noted are these: listed = inhibited more than 60%. As for the experimental part:
(§1) • Kinase-Glo(Plus)/ADP-Gloassay buffer 25 mMHEPES, 10 mMMgCl2, 0.01% Triton X-100, 100 μg/mLBSA, 2.5 mMDTT, pH7.4. • Caliper assay buffer 100 mMHEPES, 10 mMMgCl2, 100 μl/L Brij35 (30%), 1 mMDTT, pH7.4. Assay Substrates • MBP protein, UnactiveMEK1, Rbprotein were purchased from SignalChem. Poly(glu:tyr)(4:1) was purchased from Sigma. PIP2 was purchased from Cayman. Peptide substrates were synthesized in HD Biosciences, China. ATP was purchased from Sigma. KinaseGloPlus reagent, KinaseGloreagent and ADP Gloreagent were purchased from Promega Assay Procedure—Caliper Format
(§2) Mix Kinases, substrate, ATP and compound in 96-well assay plate, total volume is 50 μL. Incubate assay plate at 30° C. for 1 hour. Stop reaction by adding 20 μL of 35 mM EDTA and transfer 26 μL stopped reaction to 384-well assay plate. Read the assay plate on the plate reader.
(§3) Mix Kinases, substrate, ATP and compound in 384-well assay plate, total volume is 10 μl. Incubate assay plate at 30° C. for 1 hour. Add 10 μl/well of ADP GloReagent to the assay plate, incubate at 27° C. for 40 min.
(§4) Add 20 μl/well Detection Reagent to the assay plate, incubate at 27° C. for 30 min. Read the assay plate on the plate reader
(§5) Mix Kinase, substrate, ATP and compound in 384-well assay plate, total volume is 10 μl. Incubate assay plate at 30° C. for 1 hour. Add 10 μl/well KinaseGlo(Plus) reagent to the reaction mixture, and then incubate at 27° C. for 20 min. Read the assay plate on plate reader. • Hundred percent effect was performed without compound and enzyme, but containing ATP and substrate. • Zero percent effect was carried out without compound, but containing ATP, substrate and enzyme. • SB202190 is reference compounds for kinase p38β; Staurosporine(STSP) is reference compound for the remaining kinases. Results

The target of data set [3] is FLT3 (Homo sapiens, UniProt P36888). The experiment in a line: Kinase activity assay. It counts as biochemical. The conditions noted are these: listed = inhibited more than 60%. As for the experimental part: as §1, §2, §3, §4, §5
Data set [4] deals with PI3Kα (Homo sapiens, UniProt P42336). Description: Kinase activity assay. In kind it is biochemical. The conditions noted are these: listed = inhibited more than 60%. As for the experimental part: as §1, §2, §3, §4, §5
In data set [5] the target is PI3Kγ (Homo sapiens, UniProt P48736). The experiment in a line: Kinase activity assay. In kind it is biochemical. The conditions noted are these: listed = inhibited more than 60%. As for the experimental part:
as §1, §2, §3, §4, §5

For data set [6], the target named is PI3Kδ (Homo sapiens, UniProt O00329). The experiment in a line: Kinase activity assay. It counts as biochemical. The conditions noted are these: listed = inhibited more than 60%. The method, then: as §1, §2, §3, §4, §5
Data set [7] addresses TrkA (Homo sapiens, UniProt P04629). The experiment in a line: Kinase activity assay. In kind it is biochemical. The conditions noted are these: listed = inhibited more than 60%. As for the experimental part:
as §1, §2, §3, §4, §5

For data set [8], the system named is MRSA. Description: MIC screening, broth microdilution (CLSI).
Protocol: The MICs were determined by the broth microdilution method according to the Clinical and Laboratory Standards Institute (CLSI) guidelines. The MIC screening was performed on 96-well plates containing the compounds in serial 2-fold dilutions from 64 to 0.06 μg/ml. The bacterial inoculations were prepared in cation-adjusted Mueller Hinton medium broth from cultures grown on appropriate agar plates which are prepared freshly every week. The growth controls and sterile controls were included in each assay plates. The assay plates were incubated in an ambient-air incubator at 35±2° C. for 16-20 hr (24 hr for MRSA), and bacterial growth was observed and recorded.
(§6) A. Revive bacterial strains from storage frozen (−80° C.) two days before the MIC screening. Streak onto surface of appropriate agar plates, and incubate the plates for 20-24 hr at 35±2° C. in an appropriate atmosphere.
(§7) B. Select 5-10 well-isolated colonies of similar morphology and restreak onto fresh agar plates using sterile loops. Incubate the plates for 20-24 hr at 35±2° C. in an appropriate atmosphere as above.
(§8) Compound stock solutions were prepared in 100% DMSO on the day of MIC screening and use immediately. Compound stock concentration=[(highest testing concentration)×103 μl/3 μl] (e.g. if the required highest testing concentration is 64 μg/ml in assay plates, stock concentration=64×103/3=2.2 mg/ml). The potency of testing compound is assumed as 100% unless otherwise stated whereas the potency of reference compound is calculated according to manufacturer's analysis data.
(§9) Eleven two-fold dilutions per compound were made then transferred 3 μl to each well of test plate. Final concentration of DMSO in the MIC screening is ˜3%.
(§10) B. Transfer colonies from fresh culture plates into 5 ml of saline with sterile loops and mix well. Measure and adjust turbidity to 0.5 McFarland barium sulphate standard using a turbidity meter. Alternatively, transfer 1-2 colonies into 500 μl of saline and adjust OD625 to ˜0.1 using a plate reader. […] Dilute bacterial inoculum 1:280 for Gram-positive and fastidious strains and 1:400 for Gram-negative strains into corresponding medium broth (CAMHB, CAMHB+3% lysed horse blood, HTM) (e.g. 35.6 μl of inoculum into 10 ml of CAMHB or 25 μl of inoculum into 10 ml of CAMHB). H. influenzae: HTM Streptococci: CAMHB+3% lysed horse blood Other strains in the panel: CAMHB 2.4. Prepare Assay Plates A. Add 100 μl of the bacterial inoculum to each well of the compound plates except wells B12, D12, F12 and H12. B. Add 100 μl of medium broth to wells B12, D12, F12 and H12 of the compound plates. […] Stack four plates together and cover with a sterile plate lid. Incubate in an ambient-air incubator at 35±2° C. for 16-20 hours (24 hours for MRSA). […] Perform Colony Counts A. Dilute the bacterial inoculum (0.5 McFarland) to a serial of 10-1 to 10-7 in saline solution (e.g. 100 μl bacterial inoculum+900 μl of saline). B. Spread 100 μl of each dilution (10-4, 10-5, 10-6, and 10-7) onto CAMHA plates in triplication, let the liquid soak into the agar for 10 minutes, invert the agar plates and incubate for 24 hr at 35±2° C. […] Record MICs and Calculate CFUs A. Open the compound plate layout in the compound management system, and check the assay plate barcode. B. Place the assay plate on the top of MIC reader, and adjust the magnification mirror to read each wells, record growth status as raw data. (Optional) Record photo image of each assay plates using high-speed high-resolution scanner. […] Determine MIC break points according to CLSI guideline. D. Count colonies and calculate CFU of bacterial inoculum.
Data set [9] has as its system Streptococci. The experiment in a line: MIC screening, broth microdilution (CLSI).
Protocol: (§11) The minimum inhibition concentration (MIC) screening was performed with 14 bacterial strains and 4 compounds. The MICs were determined by the broth microdilution method according to the Clinical and Laboratory Standards Institute (CLSI) guidelines. The MIC screening was performed on 96-well plates containing the compounds in serial 2-fold dilutions from 64 to 0.06 μg/ml. The bacterial inoculations were prepared in cation-adjusted Mueller Hinton medium broth from cultures grown on appropriate agar plates which are prepared freshly every week. The growth controls and sterile controls were included in each assay plates. The assay plates were incubated in an ambient-air incubator at 35±2° C. for 16-20 hr (24 hr for MRSA), and bacterial growth was observed and recorded.
as §6
Streptococci: TSA II, 5% CO2
as §7, §8, §9, §10
Data set [10] concerns Enterococci. The experiment in a line: MIC screening, broth microdilution (CLSI).
Protocol: as §11, §6
Enterococci: TSA II, ambient air
as §7, §8, §9
B. Transfer colonies from fresh culture plates into 5 ml of saline with sterile loops and mix well. Measure and adjust turbidity to 0.5 McFarland barium sulphate standard using a turbidity meter. Alternatively, transfer 1-2 colonies into 500 μl of saline and adjust OD625 to ˜0.1 using a plate reader. C. Dilute bacterial inoculum 1:280 for Gram-positive and fastidious strains and 1:400 for Gram-negative strains into corresponding medium broth (CAMHB, CAMHB+3% lysed horse blood, HTM) (e.g. 35.6 μl of inoculum into 10 ml of CAMHB or 25 μl of inoculum into 10 ml of CAMHB). H. influenzae: HTM Streptococci: CAMHB+3% lysed horse blood Other strains in the panel: CAMHB 2.4. Prepare Assay Plates A. Add 100 μl of the bacterial inoculum to each well of the compound plates except wells B12, D12, F12 and H12. B. Add 100 μl of medium broth to wells B12, D12, F12 and H12 of the compound plates. C. Stack four plates together and cover with a sterile plate lid. Incubate in an ambient-air incubator at 35±2° C. for 16-20 hours (24 hours for MRSA). […] Perform Colony Counts A. Dilute the bacterial inoculum (0.5 McFarland) to a serial of 10-1 to 10-7 in saline solution (e.g. 100 μl bacterial inoculum+900 μl of saline). B. Spread 100 μl of each dilution (10-4, 10-5, 10-6, and 10-7) onto CAMHA plates in triplication, let the liquid soak into the agar for 10 minutes, invert the agar plates and incubate for 24 hr at 35±2° C. […] Record MICs and Calculate CFUs A. Open the compound plate layout in the compound management system, and check the assay plate barcode. B. Place the assay plate on the top of MIC reader, and adjust the magnification mirror to read each wells, record growth status as raw data. (Optional) Record photo image of each assay plates using high-speed high-resolution scanner. C. Determine MIC break points according to CLSI guideline. D. Count colonies and calculate CFU of bacterial inoculum.
Data set [11] concerns Haemophilus influenzae. Description: MIC screening, broth microdilution (CLSI).
Protocol: as §11, §6
Haemophilus influenzae: chocolate agar, 5% CO2
as §7, §8, §9, §10
Data set [12] relates to Acinetobacter calcoaceticus. Description: MIC screening, broth microdilution (CLSI).
Protocol: as §11, §8, §9, §10
The subject of data set [13] is Escherichia coli. The experiment in a line: MIC screening, broth microdilution (CLSI).
Protocol: as §11, §8, §9, §10
For data set [14], the system named is Klebsiella pneumoniae. Description: MIC screening, broth microdilution (CLSI).
Protocol: as §11, §8, §9, §10
The test system of data set [15] is Pseudomonas aeruginosa. The experiment in a line: MIC screening, broth microdilution (CLSI).
Protocol: as §11, §8, §9, §10
Data set [16] has as its system Staphylococcus aureus. The experiment in a line: MIC screening, broth microdilution (CLSI).
Protocol: as §11, §8, §9, §10
For data set [17], the target named is PI3Kβ (Homo sapiens, UniProt P42338). The experiment in a line: Kinase activity assay. It counts as biochemical. The conditions noted are these: listed = inhibited more than 60%. As for the experimental part:
as §1, §2, §3, §4, §5

Data set [18] has as its system BT-549. Description: NCI in vitro cancer screen, Breast Cancer. The conditions noted are these: for GI50 / CC50: Homo sapiens; for CC50: read-out: LC50 (the source's name). It counts as cell-based, human.
The mark [19] stands for this setting: Staphylococcus aureus (ATCC 43300), Exp 2.
The mark [20] stands for this setting: Staphylococcus aureus (MRSA, Erythromycin & clindamycin-resistant), Exp 2.
[21] abbreviates: Staphylococcus aureus, ATCC43300 / MRSA.
Where [22] appears, read: Streptococcus pneumoniae, ATCC49619, Streptococcus pneumoniae (ATCC 49619), Exp 1.
Where [23] appears, read: Streptococcus pneumoniae, ATCC49619, Streptococcus pneumoniae (ATCC 49619), Exp 2.
Setting [24] is: Streptococcus pneumoniae, Streptococcus pneumoniae (Erythromycin-resistant), Exp 1.
Where [25] appears, read: Streptococcus pneumoniae, Streptococcus pneumoniae (Erythromycin-resistant), Exp 2.
[26] abbreviates: Streptococcus pyogenes, ATCC700942, Streptococcus pyogenes (ATCC 700942), Exp 1.
The mark [27] stands for this setting: Streptococcus pyogenes, ATCC700942, Streptococcus pyogenes (ATCC 700942), Exp 2.
Setting [28] is: Enterococcus faecalis, ATCC29212, Enterococcus faecalis (ATCC 29212), Exp 1.
The mark [29] stands for this setting: Enterococcus faecalis, ATCC29212, Enterococcus faecalis (ATCC 29212), Exp 2.
Setting [30] is: Enterococcus faecium, ATCC700221, Enterococcus faecium (ATCC 700221), Exp 1.
Setting [31] is: Enterococcus faecium, ATCC700221, Enterococcus faecium (ATCC 700221), Exp 2.
Setting [32] is: ATCC29213, Staphylococcus aureus (ATCC 29213), Exp 1.
[33] abbreviates: ATCC29213, Staphylococcus aureus (ATCC 29213), Exp 2.
Where [34] appears, read: Staphylococcus aureus (Levofloxacin-resistant), Exp 1.
Where [35] appears, read: Staphylococcus aureus (Levofloxacin-resistant), Exp 2.

Sequence of PI3Kδ (O00329 whole entry, species assumed): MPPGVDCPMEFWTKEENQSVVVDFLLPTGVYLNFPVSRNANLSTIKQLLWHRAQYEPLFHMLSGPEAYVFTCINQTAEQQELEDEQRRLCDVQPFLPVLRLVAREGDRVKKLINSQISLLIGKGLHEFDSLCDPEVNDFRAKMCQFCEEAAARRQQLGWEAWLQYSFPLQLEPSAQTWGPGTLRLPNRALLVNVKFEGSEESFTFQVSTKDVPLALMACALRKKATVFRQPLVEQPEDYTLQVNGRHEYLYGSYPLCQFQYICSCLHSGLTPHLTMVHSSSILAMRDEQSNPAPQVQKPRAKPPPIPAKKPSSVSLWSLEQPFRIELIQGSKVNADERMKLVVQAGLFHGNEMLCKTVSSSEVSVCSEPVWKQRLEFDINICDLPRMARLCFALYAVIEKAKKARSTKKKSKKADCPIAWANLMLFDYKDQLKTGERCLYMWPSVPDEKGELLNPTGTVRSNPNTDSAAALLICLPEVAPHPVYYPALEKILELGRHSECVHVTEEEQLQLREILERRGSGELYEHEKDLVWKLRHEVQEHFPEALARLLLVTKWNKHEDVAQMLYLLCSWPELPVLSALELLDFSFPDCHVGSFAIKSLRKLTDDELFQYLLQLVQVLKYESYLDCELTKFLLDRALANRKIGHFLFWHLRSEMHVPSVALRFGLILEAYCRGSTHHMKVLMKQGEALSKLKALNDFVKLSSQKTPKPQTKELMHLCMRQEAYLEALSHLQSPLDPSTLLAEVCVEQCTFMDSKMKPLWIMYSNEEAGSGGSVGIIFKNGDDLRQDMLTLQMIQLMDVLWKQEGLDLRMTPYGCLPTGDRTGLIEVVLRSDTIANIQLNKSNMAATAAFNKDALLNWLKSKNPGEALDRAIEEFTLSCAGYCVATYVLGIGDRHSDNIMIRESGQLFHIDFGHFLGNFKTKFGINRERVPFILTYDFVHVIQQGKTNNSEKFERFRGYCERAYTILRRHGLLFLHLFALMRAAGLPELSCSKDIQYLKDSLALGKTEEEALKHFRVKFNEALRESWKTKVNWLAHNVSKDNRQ
Sequence of PI3Kδ (P27986 whole entry partner, species assumed): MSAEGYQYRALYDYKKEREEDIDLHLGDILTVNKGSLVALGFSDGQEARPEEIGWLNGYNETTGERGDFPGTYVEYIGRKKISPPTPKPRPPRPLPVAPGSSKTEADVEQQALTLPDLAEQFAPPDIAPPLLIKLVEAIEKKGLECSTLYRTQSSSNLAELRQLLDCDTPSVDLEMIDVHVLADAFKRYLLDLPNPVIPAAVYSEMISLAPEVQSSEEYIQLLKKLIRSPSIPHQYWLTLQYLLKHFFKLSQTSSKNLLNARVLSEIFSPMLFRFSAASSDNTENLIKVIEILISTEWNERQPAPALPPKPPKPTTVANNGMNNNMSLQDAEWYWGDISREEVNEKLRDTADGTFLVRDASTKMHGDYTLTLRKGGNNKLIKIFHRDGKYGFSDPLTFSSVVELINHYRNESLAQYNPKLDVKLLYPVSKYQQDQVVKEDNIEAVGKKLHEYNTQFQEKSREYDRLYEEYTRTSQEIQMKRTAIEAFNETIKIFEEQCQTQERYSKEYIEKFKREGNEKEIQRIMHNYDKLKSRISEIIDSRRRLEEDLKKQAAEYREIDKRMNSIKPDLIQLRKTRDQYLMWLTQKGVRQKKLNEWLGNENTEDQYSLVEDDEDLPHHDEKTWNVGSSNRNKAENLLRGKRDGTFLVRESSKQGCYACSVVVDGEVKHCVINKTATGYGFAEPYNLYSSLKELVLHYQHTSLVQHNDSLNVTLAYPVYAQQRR
Sequence of TrkA (P04629 33-796, species assumed): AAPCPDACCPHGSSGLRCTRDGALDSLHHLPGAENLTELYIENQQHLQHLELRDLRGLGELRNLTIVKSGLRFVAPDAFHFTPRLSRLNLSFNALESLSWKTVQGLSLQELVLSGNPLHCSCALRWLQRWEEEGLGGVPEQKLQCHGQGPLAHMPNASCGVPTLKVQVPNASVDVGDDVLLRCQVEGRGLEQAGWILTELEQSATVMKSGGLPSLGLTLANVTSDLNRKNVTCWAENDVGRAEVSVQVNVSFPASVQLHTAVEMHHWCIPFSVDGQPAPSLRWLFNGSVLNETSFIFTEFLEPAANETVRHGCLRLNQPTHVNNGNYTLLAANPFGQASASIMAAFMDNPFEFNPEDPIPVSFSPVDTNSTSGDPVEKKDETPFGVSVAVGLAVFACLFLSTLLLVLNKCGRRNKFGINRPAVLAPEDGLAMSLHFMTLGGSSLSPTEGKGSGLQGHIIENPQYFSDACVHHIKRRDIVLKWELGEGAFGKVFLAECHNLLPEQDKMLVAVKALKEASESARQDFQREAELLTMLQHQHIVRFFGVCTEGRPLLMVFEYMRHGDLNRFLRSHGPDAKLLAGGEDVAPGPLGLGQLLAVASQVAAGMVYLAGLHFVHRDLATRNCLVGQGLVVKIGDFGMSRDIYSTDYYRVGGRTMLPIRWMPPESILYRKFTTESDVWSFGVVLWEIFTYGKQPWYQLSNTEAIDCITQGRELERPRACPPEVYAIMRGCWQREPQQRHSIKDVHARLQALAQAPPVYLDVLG
Sequence of PI3Kγ (P48736 whole entry, species assumed): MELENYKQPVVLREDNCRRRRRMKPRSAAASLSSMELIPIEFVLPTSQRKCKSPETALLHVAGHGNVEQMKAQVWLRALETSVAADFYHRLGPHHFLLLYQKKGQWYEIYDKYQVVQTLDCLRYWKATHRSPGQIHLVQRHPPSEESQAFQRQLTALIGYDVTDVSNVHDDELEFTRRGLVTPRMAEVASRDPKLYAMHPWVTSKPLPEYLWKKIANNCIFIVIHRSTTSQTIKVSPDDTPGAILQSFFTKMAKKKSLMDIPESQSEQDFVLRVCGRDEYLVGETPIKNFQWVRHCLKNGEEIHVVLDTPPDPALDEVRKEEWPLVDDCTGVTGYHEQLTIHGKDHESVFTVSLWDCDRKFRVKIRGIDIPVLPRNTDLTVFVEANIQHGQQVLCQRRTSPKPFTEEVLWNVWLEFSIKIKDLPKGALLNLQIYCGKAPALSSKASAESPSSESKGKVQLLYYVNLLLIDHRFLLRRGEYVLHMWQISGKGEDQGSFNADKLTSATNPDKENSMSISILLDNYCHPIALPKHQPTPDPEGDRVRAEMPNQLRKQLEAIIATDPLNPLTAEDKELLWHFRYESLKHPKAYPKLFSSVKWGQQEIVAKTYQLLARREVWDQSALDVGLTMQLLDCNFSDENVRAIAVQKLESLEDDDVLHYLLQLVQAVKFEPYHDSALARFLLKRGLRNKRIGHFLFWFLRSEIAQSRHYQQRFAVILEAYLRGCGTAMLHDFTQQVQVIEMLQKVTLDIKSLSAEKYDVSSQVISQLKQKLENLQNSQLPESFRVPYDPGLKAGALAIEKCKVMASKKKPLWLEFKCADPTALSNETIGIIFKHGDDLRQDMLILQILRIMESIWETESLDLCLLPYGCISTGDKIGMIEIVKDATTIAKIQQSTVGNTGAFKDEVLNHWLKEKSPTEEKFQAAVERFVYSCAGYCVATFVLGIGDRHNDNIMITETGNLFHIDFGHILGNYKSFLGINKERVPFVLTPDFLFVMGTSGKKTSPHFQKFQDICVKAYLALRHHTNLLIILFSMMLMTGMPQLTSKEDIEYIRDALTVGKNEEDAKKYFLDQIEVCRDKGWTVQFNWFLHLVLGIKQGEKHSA
Sequence of FLT3 (P36888 27-993, species assumed): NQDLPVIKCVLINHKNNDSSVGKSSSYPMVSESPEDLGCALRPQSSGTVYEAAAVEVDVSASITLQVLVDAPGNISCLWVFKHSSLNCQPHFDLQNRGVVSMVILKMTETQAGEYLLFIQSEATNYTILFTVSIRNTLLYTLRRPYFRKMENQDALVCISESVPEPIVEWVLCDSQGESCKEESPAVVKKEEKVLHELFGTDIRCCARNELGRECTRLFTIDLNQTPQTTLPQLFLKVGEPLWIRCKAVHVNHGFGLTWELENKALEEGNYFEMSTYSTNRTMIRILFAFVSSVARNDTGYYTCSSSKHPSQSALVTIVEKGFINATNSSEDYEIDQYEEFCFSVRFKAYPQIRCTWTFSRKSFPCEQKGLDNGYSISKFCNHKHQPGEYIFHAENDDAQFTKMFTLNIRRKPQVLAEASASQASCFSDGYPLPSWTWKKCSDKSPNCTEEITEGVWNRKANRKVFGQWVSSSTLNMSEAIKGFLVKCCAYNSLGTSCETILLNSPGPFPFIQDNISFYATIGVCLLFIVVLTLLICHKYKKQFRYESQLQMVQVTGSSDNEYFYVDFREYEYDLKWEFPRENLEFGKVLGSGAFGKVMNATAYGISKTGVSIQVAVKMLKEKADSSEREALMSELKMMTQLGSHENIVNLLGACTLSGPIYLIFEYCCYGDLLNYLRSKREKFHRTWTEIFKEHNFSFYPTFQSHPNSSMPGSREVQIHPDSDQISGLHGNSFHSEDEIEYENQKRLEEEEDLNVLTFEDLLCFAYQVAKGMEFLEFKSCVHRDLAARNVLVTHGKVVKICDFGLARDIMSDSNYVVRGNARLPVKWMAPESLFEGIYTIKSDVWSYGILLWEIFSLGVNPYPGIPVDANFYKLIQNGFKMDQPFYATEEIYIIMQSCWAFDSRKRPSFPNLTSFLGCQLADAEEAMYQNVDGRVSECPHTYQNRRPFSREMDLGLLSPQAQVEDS

As for `COc1cc(/C=C/c2cc(O)cc(OC)c2CC=C(C)C)ccc1O` [USYDS1, (E)-2-(3-methyl-2-buten-1-yl)-4′,5-dihydroxy-3,3′-dimethoxystilbene], in data set [1], the “Log P relative to resveratrol” value is listed as “almost twice that of the hydroxystilbene resveratrol”. Also, the “Kinases that inhibited more than 60%” value is “CDK2/CyclinA2” in [2]; “FLT3” in data set [3]; “PI3Kα” in data set [4]; “PI3Kγ” in data set [5]; “PI3Kδ” in data set [6]; “TrkA” in data set [7]. Moreover, the MIC was found to be 8 µg/mL (≈ 23.5 µM) in data set [8] (setting [19]); 8 µg/mL (≈ 23.5 µM) in data set [8] (setting [20]); 8 µg/mL (≈ 23.5 µM) in data set [8] (setting [21]); 8 µg/mL (≈ 23.5 µM) in [8] (Staphylococcus aureus, MRSA); 32 µg/mL (≈ 94 µM) in data set [9] (setting [22]); 32 µg/mL (≈ 94 µM) in data set [9] (setting [23]). Further, the MIC in data set [9] (setting [24]) came to 32 µg/mL (≈ 94 µM); in data set [9] (setting [25]), 32 µg/mL (≈ 94 µM); in [9] (setting [26]) it was 64 µg/mL (≈ 188 µM); in data set [9] (setting [27]), 64 µg/mL (≈ 188 µM); in [10] (setting [28]) it was 16 µg/mL (≈ 47 µM); in data set [10] (setting [29]) it was 16 µg/mL (≈ 47 µM). For the same compound, the MIC is 8 µg/mL (≈ 23.5 µM) in [10] (setting [30]); 16 µg/mL (≈ 47 µM) in data set [10] (setting [31]); 32 µg/mL (≈ 94 µM) in [11]; 32 µg/mL (≈ 94 µM) in data set [11] (Exp 2); more than 64 µg/mL in [12]; more than 64 µg/mL in data set [12] (Exp 2). Moreover, the MIC was 16 µg/mL (≈ 47 µM) in [13] (Exp 1); 16 µg/mL (≈ 47 µM) in data set [13] (Exp 2); more than 64 µg/mL in data set [14]; more than 64 µg/mL in data set [14] (Exp 2); more than 64 µg/mL in data set [15]; more than 64 µg/mL in [15] (Exp 2). The MIC stood at 16 µg/mL (≈ 47 µM) in data set [16] (setting [32]), 8 µg/mL (≈ 23.5 µM) in data set [16] (setting [33]), 8 µg/mL (≈ 23.5 µM) in data set [16] (setting [34]) and 8 µg/mL (≈ 23.5 µM) in data set [16] (setting [35]).
For the compound `COc1cc(/C=C/c2cc(O)cc(OCC=C(C)C)c2)ccc1O` [USYDS2, (E)-3-(3-methyl-2-butenyloxy)-4′,5-dihydroxy-3′-methoxystilbene], the “Log P relative to resveratrol” value in [1] was “almost twice that of the hydroxystilbene resveratrol”. For the same compound, the “Kinases that inhibited more than 60%” value in data set [17] is given as “PI3Kβ”; in data set [5] it was “PI3Kγ”; in data set [6] it was “PI3Kδ”; in data set [7] it was “TrkA”. The MIC in [8] (setting [19]) was found to be 16 µg/mL (≈ 49 µM); in data set [8] (setting [20]), 16 µg/mL (≈ 49 µM); in data set [8] (setting [21]), 16 µg/mL (≈ 49 µM); in [8] (Staphylococcus aureus, MRSA), 16 µg/mL (≈ 49 µM); in [9] (setting [22]), 32 µg/mL (≈ 98 µM); in data set [9] (setting [23]), 32 µg/mL (≈ 98 µM). In addition, the MIC in data set [9] (setting [24]) turned out to be 32 µg/mL (≈ 98 µM); in data set [9] (setting [25]), 64 µg/mL (≈ 196 µM); in data set [9] (setting [26]) it was 64 µg/mL (≈ 196 µM); in data set [9] (setting [27]), 64 µg/mL (≈ 196 µM); in data set [10] (setting [28]), 32 µg/mL (≈ 98 µM); in data set [10] (setting [29]), 32 µg/mL (≈ 98 µM). For the same compound, the MIC is 32 µg/mL (≈ 98 µM) in data set [10] (setting [30]); 32 µg/mL (≈ 98 µM) in [10] (setting [31]); 32 µg/mL (≈ 98 µM) in data set [11]; 32 µg/mL (≈ 98 µM) in [11] (Exp 2); more than 64 µg/mL in data set [12]; more than 64 µg/mL in [12] (Exp 2). Besides, the MIC in data set [13] (Exp 1) is 64 µg/mL (≈ 196 µM); in data set [13] (Exp 2), 32 µg/mL (≈ 98 µM); in data set [14] it was more than 64 µg/mL; in [14] (Exp 2) it was more than 64 µg/mL; in [15], more than 64 µg/mL; in data set [15] (Exp 2), more than 64 µg/mL. The MIC in data set [16] (setting [32]) is 32 µg/mL (≈ 98 µM); in data set [16] (setting [33]) it was 16 µg/mL (≈ 49 µM); in data set [16] (setting [34]), 16 µg/mL (≈ 49 µM); in data set [16] (setting [35]), 16 µg/mL (≈ 49 µM).
Take `COc1cc(/C=C/c2cc(O)cc(O)c2CC=C(C)C)ccc1O` [USYDS10, (E)-2-(3-methyl-2-buten-1-yl)-3,4′,5-trihydroxy-3′-methoxystilbene]: the TGI in data set [18] (BT-549, unit not printed (M)) is 1.90E−5. Moreover, the concentration for 50% growth inhibition (GI50) in [18] (BT-549, unit not printed (M)) is 798 nM. In addition, the CC50 in data set [18] (BT-549, unit not printed (M)) was 49.3 µM. For the same compound, the “Kinases that inhibited more than 60%” value in data set [2] is on record as “CDK2/CyclinA2”; in [3], “FLT3”; in data set [4] it was “PI3Kα”; in [17], “PI3Kβ”; in data set [5], “PI3Kγ”; in data set [6], “PI3Kδ”. The “Kinases that inhibited more than 60%” value in data set [7] is “TrkA”.
As to `CC(C)=CCOc1cc(O)cc(/C=C/c2ccc(O)c(O)c2)c1CC=C(C)C` [USYDS14, (E)-2-(3-methyl-2-buten-1-yl)-3-(3-methyl-2-butenyloxy)-3′,4′,5-trihydroxystilbene], in data set [18] (BT-549, Breast Cancer), the TGI turned out to be 1.63e-05 M, the concentration for 50% growth inhibition (GI50) amounted to 4270 nM and the CC50 came to 46.9 µM.
